Laboratory results as given in patent US8309568B2, “Transdermally deliverable opioid prodrugs, abuse-resistant compositions and methods of using opioid prodrugs” (Alltranz Inc., priority 2006, dated 2012).
Where two headings read alike, the source gives them in different places.

Assays:
[1] = not given; remark: listed apart in the source
[2] = Table 10, gel formulation, analyte intact prodrug
[3] = Table 10, gel formulation, analyte total buprenorphine (buprenorphine and/or prodrug)
[4] = Table 11, propylene glycol, analyte intact prodrug
[5] = Table 11, propylene glycol, analyte total buprenorphine (buprenorphine and/or prodrug)
[6] = Table 11, propylene glycol, total buprenorphine flux relative to buprenorphine
[7] = Table 12, propylene glycol/ethanol [96:4], analyte buprenorphine from prodrug
[8] = Table 12, propylene glycol/ethanol [96:4], analyte intact prodrug
[9] = Table 12, propylene glycol/ethanol [96:4], analyte total buprenorphine (buprenorphine and/or prodrug)
[10] = Table 13, gel formulation, analyte buprenorphine from prodrug
[11] = Table 13, gel formulation, analyte total buprenorphine (buprenorphine and/or prodrug)
[12] = Table 8, gel formulation, analyte buprenorphine from prodrug
[13] = Table 8, gel formulation, analyte intact prodrug
[14] = Table 8, gel formulation, analyte total buprenorphine (buprenorphine and/or prodrug)
[15] = Table 8, gel formulation, total buprenorphine flux relative to buprenorphine
[16] = Table 9, propylene glycol, analyte buprenorphine from prodrug
[17] = Table 9, propylene glycol, analyte intact prodrug
[18] = Table 9, propylene glycol, analyte total buprenorphine (buprenorphine and/or prodrug)
[19] = Table 6, propylene glycol, 25% aq. ethanol receiver, analyte buprenorphine from prodrug
[20] = Table 6, propylene glycol, 25% aq. ethanol receiver, analyte intact prodrug
[21] = Table 6, propylene glycol, 25% aq. ethanol receiver, analyte total buprenorphine (buprenorphine and/or prodrug)
[22] = Table 11, propylene glycol, analyte buprenorphine from prodrug

COCCOCCOCCOCCOC(=O)Oc1ccc2c3c1OC1C4(OC)CC[C@]5(CC4C(C)(O)C(C)(C)C)[C@@H](C2)N(CC2CC2)CC[C@]315 (stereo partly drawn) [ALL00115, Buprenorphine 3,6,9,12-tetraoxatridecyl carbonate]
24 h cumulative amt [2]: 4.5 ± 1.3 nmol | Flux [2]: 0.2 ± 0.1 nmol/cm^2/h | Lag time [2]: 7.6 ± 0.5 h | 24 h cumulative amt [3]: 4.5 ± 1.3 nmol | Flux [3]: 0.2±0.1 nmol/cm^2/h | Lag time [3]: 7.6 ± 0.5 h | Flux enhancement (Table 10, gel formulation, total buprenorphine flux relative to buprenorphine): 1.2 | 24 h cumulative amt [4]: 6.0 ± 1.3 nmol | 24 h cumulative amt [5]: 6.0 ± 1.3 nmol | Flux [5]: 0.7±0.2 nmol/cm^2/h | Lag time [5]: 9.4 ± 8.5 h | Flux enhancement [6]: 2.3 | form detected in the receiver fluid (both the gel formulation and propylene glycol): mostly detected as intact prodrug | 24 h skin conc ([1]; Table 10, gel formulation, analyte buprenorphine from prodrug): 0.1 ± 0.0 µmol/g | 24 h skin conc [1, 2]: 3.4 ± 0.6 µmol/g | 24 h skin conc [1, 3]: 1.4 ± 0.4 µmol/g | 24 h skin conc [1, 4]: 0.8 ± 0.2 µmol/g | 24 h skin conc [1, 5]: 0.8 ± 0.2 µmol/g

COCCOCCOCCOCC(=O)Oc1ccc2c3c1OC1C4(OC)CC[C@]5(CC4C(C)(O)C(C)(C)C)[C@@H](C2)N(CC2CC2)CC[C@]315 (stereo partly drawn) [ALL00116, Buprenorphine 3,6,9,12-tetraoxatridecanoyl ester]
24 h cumulative amt [7]: 8.7 ± 1.2 nmol | Flux [7]: 0.8 ± 0.2 nmol/cm^2/h | Lag time [7]: 13.2 ± 0.8 h | 24 h cumulative amt [8]: 21.7 ± 6.7 nmol | Flux [8]: 1.9 ± 0.6 nmol/cm^2/h | Lag time [8]: 11.8 ± 1.4 h | 24 h cumulative amt [9]: 30.4 ± 7.0 nmol | Flux [9]: 2.7±0.7 nmol/cm^2/h | Lag time [9]: 12.3 ± 1.2 h | Flux enhancement (Table 12, propylene glycol/ethanol [96:4], total buprenorphine flux relative to buprenorphine): 9.2 | 24 h cumulative amt [10]: 5.5 ± 0.6 nmol | Flux [10]: 0.4 ± 0.1 nmol/cm^2/h | Lag time [10]: 7.2 ± 0.6 h | 24 h cumulative amt [11]: 5.5 ± 0.6 nmol | Flux [11]: 0.4±0.1 nmol/cm^2/h | Lag time [11]: 7.2 ± 0.6 h | Flux enhancement (Table 13, gel formulation, total buprenorphine flux relative to buprenorphine): 1.2 | 24 h skin conc [1, 7]: 2.4 ± 0.9 µmol/g | 24 h skin conc [1, 8]: 20.4 ± 5.8 µmol/g | 24 h skin conc [1, 9]: 22.7 ± 6.8 µmol/g | 24 h skin conc [1, 10]: 0.2 ± 0.0 µmol/g | 24 h skin conc ([1]; Table 13, gel formulation, analyte intact prodrug): 3.3 ± 0.8 µmol/g | 24 h skin conc [1, 11]: 3.5 ± 0.9 µmol/g

COCCOCCOCCOC(=O)Oc1ccc2c3c1OC1C4(OC)CC[C@]5(CC4C(C)(O)C(C)(C)C)[C@@H](C2)N(CC2CC2)CC[C@]315 (stereo partly drawn) [ALL00106, Buprenorphine 3,6,9-trioxadecyl carbonate]
form in which the prodrug permeated through the skin (Hanks' buffer receiver fluid): permeated through the human skin as buprenorphine | 24 h cumulative amt (Table 3, donor propylene glycol, Hanks' buffer receiver, buprenorphine permeated): 11.4 ± 0.8 nmol | Flux (Table 3, donor propylene glycol, Hanks' buffer receiver, total buprenorphine flux): 0.54±0.07 nmol/cm^2/h | Flux enhancement (Table 3, donor propylene glycol, flux relative to buprenorphine): 1.20 | 24 h cumulative amt [12]: 1.7 ± 0.3 nmol | Flux [12]: 0.2 ± 0.1 nmol/cm^2/h | Lag time [12]: 4.7 ± 1.5 h | 24 h cumulative amt [13]: 3.8 ± 0.3 nmol | Flux [13]: 0.3 ± 0.0 nmol/cm^2/h | Lag time [13]: 8.2 ± 0.8 h | 24 h cumulative amt [14]: 5.5 ± 0.5 nmol | Flux [14]: 0.4 ± 0.1 nmol/cm^2/h | Lag time [14]: 6.5 ± 1.1 h | Flux enhancement [15]: 0.4 | 24 h cumulative amt [16]: 30.1 ± 13.2 nmol | Flux [16]: 2.3 ± 0.8 nmol/cm^2/h | Lag time [16]: 10.2 ± 1.4 h | 24 h cumulative amt [17]: 18.8 ± 4.6 nmol | Flux [17]: 1.5 ± 0.3 nmol/cm^2/h | Lag time [17]: 11.1 ± 1.2 h | 24 h cumulative amt [18]: 48.9 ± 17.6 nmol | Flux [18]: 3.8 ± 1.1 nmol/cm^2/h | Lag time [18]: 10.6 ± 1.3 h | Flux enhancement (Table 9, propylene glycol, total buprenorphine flux relative to buprenorphine): 3.2 | 24 h skin conc ([1]; Table 3, donor propylene glycol, Hanks' buffer receiver, analyte buprenorphine (Bup)): 0.2 ± 0.1 (Bup) μmol/g | 24 h skin conc ([1]; Table 3, donor propylene glycol, Hanks' buffer receiver, analyte intact prodrug (PD)): 2.1 ± 1.5 (PD) μmol/g | 24 h skin conc [1, 12]: 0.3 ± 0.1 µmol/g | 24 h skin conc [1, 13]: 11.9 ± 3.6 µmol/g | 24 h skin conc [1, 14]: 12.2 ± 3.6 µmol/g | 24 h skin conc [1, 16]: 1.6 ± 0.4 µmol/g | 24 h skin conc [1, 17]: 10.4 ± 4.0 µmol/g | 24 h skin conc [1, 18]: 11.9 ± 4.4 µmol/g

COCCOCCOCC(=O)Oc1ccc2c3c1O[C@H]1[C@@]4(OC)CC[C@@]5(C[C@@H]4[C@@](C)(O)C(C)(C)C)[C@@H](C2)N(CC2CC2)CC[C@]315 [ALL00108, Buprenorphine 2-[2-(2-methoxyethoxy)ethoxy]acetyl ester]
24 h cumulative amt [19]: 9.7 ± 0.4 nmol | Flux [19]: 0.90 ± 0.07 nmol/cm^2/h | Lag time [19]: 12.5 ± 1.3 h | 24 h cumulative amt [20]: 7.6 ± 2.0 nmol | 24 h cumulative amt [21]: 17.3 ± 1.6 nmol | Flux [21]: 1.01±0.07 nmol/cm^2/h | Lag time [21]: 6.0 ± 0.5 h | Flux enhancement (Table 6, propylene glycol, 25% aq. ethanol receiver, total buprenorphine flux relative to buprenorphine): 2.35 | 24 h cumulative amt [12]: 21.0 ± 6.7 nmol | Flux [12]: 1.2 ± 0.6 nmol/cm^2/h | Lag time [12]: 7.8 ± 0.8 h | 24 h cumulative amt [14]: 21.0 ± 6.7 nmol | Flux [14]: 1.2±0.6 nmol/cm^2/h | Lag time [14]: 7.8 ± 0.8 h | Flux enhancement [15]: 1.3 | 24 h cumulative amt [22]: 5.8 ± 0.7 nmol | Flux [22]: 0.5 ± 0.0 nmol/cm^2/h | Lag time [22]: 10.9 ± 2.4 h | 24 h cumulative amt [5]: 5.8 ± 0.7 nmol | Flux [5]: 0.5±0.0 nmol/cm^2/h | Lag time [5]: 10.9 ± 2.4 h | Flux enhancement [6]: 1.7 | form in which the prodrug permeated through the skin (aqueous ethanol receiver fluid): permeated through the skin as buprenorphine and intact prodrug | cumulative amount (nmol) higher than the buprenorphine base (aqueous ethanol receiver, propylene glycol, relative to buprenorphine base): 4 × | 24 h skin conc [1, 19]: 0.4 ± 0.1 µmol/g | 24 h skin conc [1, 20]: 1.0 ± 0.3 µmol/g | 24 h skin conc [1, 21]: 1.4 ± 0.4 µmol/g | 24 h skin conc [1, 12]: 0.2 ± 0.2 µmol/g | 24 h skin conc [1, 13]: 1.9 ± 1.6 µmol/g | 24 h skin conc [1, 14]: 2.2 ± 1.8 µmol/g | 24 h skin conc [1, 4]: 2.4 ± 0.7 µmol/g | 24 h skin conc [1, 5]: 2.4 ± 0.7 µmol/g
